Earlier results in US20180221315A1, “COMBINATION THERAPY USING ACAMPROSATE AND D-CYCLOSERINE” (Confluence Pharmaceuticals, LLC, priority 2015, published 2018).

Key:
[1] = molecular target: NR1 NMDA receptor subunit (strychnine-insensitive glycine binding site) (Homo sapiens, UniProt Q05586); settings: partial agonist at glycine site of NMDA receptor; relative to glycine alone
[2] = test system: cognitive impairment produced by hippocampal lesions, anticholinergic agents, and early social deprivation; settings: single dose
[3] = test system: extinction of conditioned fear, maze tasks, visual recognition memory

receptor activation, level of maximum stimulation during exposure to glycine alone [1]: 40-50%
SMILES: N[C@@H]1CONC1=O [DCS, D-4-amino-3-isoxazolidone]
effect on cognitive impairment in animal models [2]: reversed cognitive impairment
effect on learning and memory in healthy animals [3]: enhanced extinction of conditioned fear, performance on maze tasks, and visual recognition memory
